Results as given in US8399414B2, “Analgesics” (NRL Pharma, Inc., priority 2002, dated 2013).

How the values were obtained:
male Wistar rats [1] = assay: formalin test, comparison with diclofenac (Example 3); type: in vivo, rat; settings: i.p. 30 minutes before formalin
Experimental: Male Wistar rats 6 weeks of age were used. The rats in one group were given bovine lactoferrin and those in another group were given a control drug, diclofenac, by intraperitoneal administration 30 minutes before injecting formalin into their foot pads. Their responses to pain are shown in FIG. 5: the phase 1 pain (left) and the phase 2 pain (right).
Lactoferrin and diclofenac were administered intraperitoneally 30 minutes before formalin injection both in the control group (n=4) and the diclofenac group (n=5). The pain inhibiting effect of diclofenac disappeared about 50 minutes after formalin injection, whereas the pain inhibiting effect of lactoferrin lasted long and even 60 minutes after formalin injection.

[2] = test system: volunteers affected by frozen shoulder; assay: frozen shoulder volunteers, oral enteric coated tablets (Example 11); type: in vivo, human
Experimental: Three male volunteers […], each of who was affected frozen shoulder and could not raise either one of their hands above the shoulder, took orally the enteric coated tablets of lactoferrin from bovine milk (Production Example 4). […] They took lactoferrin in a daily dose of 450 mg in 3 uniformly divided portions after each meal. […] disappeared and was cured in one volunteer on day 7 after the initial administration and in the other volunteers on day 12 and on day 23 after the same, respectively.

[3] = test system: patients with osteoarthritis; assay: osteoarthritis patients, oral enteric coated tablets (Example 9); type: in vivo, human; settings: diclofenac in the former, ibuprofen in the latter
Experimental: Lactoferrin extracted from bovine milk was formed into enteric coated tablets (Production Example 4) and given orally to a person whose right knee and right elbow were affected by osteoarthritis associated with the injuries caused by their falling off a bicycle and a person whose knee joints were affected by osteoarthritis associated with obesity. Lactoferrin was administered at a dose of 150 mg (450 mg per day) 3 times a day after each meal.

male Wistar rats [4] = assay: formalin test, intrathecal administration, comparison with morphine (Example 12); type: in vivo; settings: 30 minutes before formalin, bLF 0.1 to 100 μg/rat, rhLF 100 μg/rat, morphine 10 μg/rat, FIGS. 15
Experimental: Groups consisting of male Wistar rats 6 weeks of age (n=6 to 8) were intrathecally administered 0.1 to 100 μg/rat of bovine lactoferrin (bLF), 100 μg/rat of recombinant human lactoferrin (rhLF) or 10 μg/rat of morphine (Mor) 30 minutes before formalin was injected into their foot pads. The results are shown in FIGS. 15: the number of the foot-lifting times in the phase 1 pain (left graph) and the number of the foot-lifting times in the phase 2 pain (right graph).

| SMILES | inhibition of phase 1 pain (male Wistar rats [1]; FIG. 5) | inhibition of phase 2 pain (male Wistar rats [1]; FIG. 5) | duration of pain inhibiting effect after formalin injection (male Wistar rats [1]; FIGS. 7 and 8) | response to earlier treatment [2] | response to earlier treatment [3] | phase 1 pain (number of foot-lifting times) (male Wistar rats [4]) | phase 2 pain (number of foot-lifting times) (male Wistar rats [4]) |
| --- | --- | --- | --- | --- | --- | --- | --- |
| O=C(O)Cc1ccccc1Nc1c(Cl)cccc1Cl [diclofenac, reference compound] | did not | inhibited the phase 2 pain, but the degree of inhibition was low compared with that by lactoferrin | about 50 minutes | failed to respond | failed to respond |  |  |
| CC(C)Cc1ccc(C(C)C(=O)O)cc1 (centres unmarked) [ibuprofen] |  |  |  |  | failed to respond |  |  |
| CN1CC[C@]23c4c5ccc(O)c4O[C@H]2[C@@H](O)C=C[C@H]3[C@H]1C5 [morphine, reference compound] |  |  |  |  |  | inhibits | inhibits |
